Laboratory results reported in ChEMBL document CHEMBL1201862, “PubChem BioAssay data set” (2004).
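Values below derive from 48-hour exposures of cells grown in 96-well plates, with endpoints linearly interpolated between the two concentrations bracketing the appropriate inhibition level. Abbreviation: GI50, concentration required for 50% inhibition of growth.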 Activity calls are given as the source filed them. No stated cut-off is given here; in the data, active = GI50 up to about 1.1 µM and inactive = higher.

Key:
Test in all cases: inhibition of tumour cell growth, NCI panel, 48 h
[1] = test system: UACC-62
[2] = test system: DU-145
[3] = test system: HT-29
[4] = test system: RPMI-8226
[5] = test system: SNB-19
[6] = test system: PC-3
[7] = test system: BT-549
[8] = test system: HCT-116
[9] = test system: SK-MEL-28
[10] = test system: HOP-62
[11] = test system: OVCAR-4
[12] = test system: TK-10
[13] = test system: NCI-H460
[14] = test system: NCI/ADR-RES
[15] = test system: U-251
[16] = test system: NCI-H522
[17] = test system: NCI-H23
[18] = test system: SR
[19] = test system: SF-539

| SMILES | GI50 [1] | GI50 [2] | GI50 [3] | GI50 [4] | GI50 [5] | GI50 [6] | GI50 [7] | GI50 [8] | GI50 [9] | GI50 [10] | GI50 [11] | GI50 [12] | GI50 [13] | GI50 [14] | GI50 [15] | GI50 [16] | GI50 [17] | GI50 [18] | GI50 [19] |
| --- | --- | --- | --- | --- | --- | --- | --- | --- | --- | --- | --- | --- | --- | --- | --- | --- | --- | --- | --- |
| CN1C(=O)CN(NC(=O)C2=C(O)c3ccc(Br)cc3S(=O)(=O)N2)C1=S | > 100 µM (inactive) | > 100 µM (inactive) | > 100 µM (inactive) | > 100 µM (inactive) | > 100 µM (inactive) | > 100 µM (inactive) | > 100 µM (inactive) | > 100 µM (inactive) | > 100 µM (inactive) | > 100 µM (inactive) | > 100 µM (inactive) | > 100 µM (inactive) | > 100 µM (inactive) | > 100 µM (inactive) | > 100 µM (inactive) | 75.7 µM (inactive) | > 100 µM (inactive) | 46.1 µM (inactive) | – |
| Oc1c(OCc2nnc(CCCCCCCCc3nnc(COc4ccc5ccccc5c4O)o3)o2)ccc2ccccc12 | > 100 µM (inactive) | > 100 µM (inactive) | > 100 µM (inactive) | > 100 µM (inactive) | 39.9 µM (inactive) | > 100 µM (inactive) | > 100 µM (inactive) | 0.47 µM (active) | > 100 µM (inactive) | – | > 100 µM (inactive) | > 100 µM (inactive) | > 100 µM (inactive) | 64 µM (inactive) | 41.7 µM (inactive) | > 100 µM (inactive) | 61.2 µM (inactive) | – | – |
| O=C(c1ccccc1)c1sc2c(=O)c(C(=O)c3ccccc3)c(C(=O)c3ccccc3)sc2c(=O)c1C(=O)c1ccccc1 | > 100 µM (inactive) | > 100 µM (inactive) | 33.3 µM (inactive) | – | 55.3 µM (inactive) | > 100 µM (inactive) | 37.7 µM (inactive) | 44.1 µM (inactive) | > 100 µM (inactive) | 51.1 µM (inactive) | > 100 µM (inactive) | 64.3 µM (inactive) | > 100 µM (inactive) | 24.5 µM (inactive) | 44.3 µM (inactive) | 18 µM (inactive) | 42.3 µM (inactive) | 4.88 µM (inactive) | 23.6 µM (inactive) |
| COC(=O)c1ccccc1Nc1ccccc1C(=O)OC | > 100 µM (inactive) | > 100 µM (inactive) | 91.2 µM (inactive) | 64.1 µM (inactive) | > 100 µM (inactive) | 39.5 µM (inactive) | > 100 µM (inactive) | > 100 µM (inactive) | > 100 µM (inactive) | 59.6 µM (inactive) | 48.9 µM (inactive) | 41.2 µM (inactive) | > 100 µM (inactive) | > 100 µM (inactive) | 83.6 µM (inactive) | 32.1 µM (inactive) | > 100 µM (inactive) | – | 83 µM (inactive) |
| Cc1nc2c(cc1C(=O)NN)c(=O)n(C)c(=O)n2C | > 100 µM (inactive) | > 100 µM (inactive) | > 100 µM (inactive) | > 100 µM (inactive) | > 100 µM (inactive) | > 100 µM (inactive) | > 100 µM (inactive) | > 100 µM (inactive) | > 100 µM (inactive) | > 100 µM (inactive) | > 100 µM (inactive) | > 100 µM (inactive) | > 100 µM (inactive) | > 100 µM (inactive) | > 100 µM (inactive) | – | > 100 µM (inactive) | – | – |
| Nc1cccc2nnccc12 | > 100 µM (inactive) | > 100 µM (inactive) | > 100 µM (inactive) | > 100 µM (inactive) | > 100 µM (inactive) | > 100 µM (inactive) | > 100 µM (inactive) | > 100 µM (inactive) | – | – | – | > 100 µM (inactive) | > 100 µM (inactive) | > 100 µM (inactive) | > 100 µM (inactive) | 19 µM (inactive) | > 100 µM (inactive) | – | > 100 µM (inactive) |
